Data reported in US7329518B2, “Enzyme for producing optically active pyridineethanol derivatives” (Kaneka Corporation, priority 1999, dated 2008).

Assays:
FPDH [1] = experiment: Behaviors of FPDH against inhibitors (reducing activity measurement with added compounds and metal salts); assay type: biochemical, Candida maris IFO 10003
FPDH [2] = experiment: Specificity of FPDH: reducing activity against various carbonyl compounds as substrates; assay type: biochemical, Candida maris IFO 10003; conditions: substrate 1 mM; 5-acetylfuro[2,3-c]pyridine = 100%; 0.25 mM NADH, pH 6.5, 30° C.
Protocol: In the practice of the invention, the reducing activity of the enzyme is determined by carrying out the reaction in 3.0 ml of a reactant mixture containing 1 mM substrate, 0.25 mM coenzyme NADH, 0.3% (vol/vol) dimethyl sulfoxide and an enzyme solution in 100 mM phosphate buffer (pH 6.5) at 30° C. for 3 minutes and then measuring the reduction in absorbance at 340 nm.
The term “very low in reducing activity” referring to the specificity means that when the reducing activity against 5-acetylfuro[2,3-c]pyridine is taken as 100%, the reducing activity against the substrate in question is not more than 10%. The term “carbocyclic ketones” means ketones, such as cyclohexanone and cyclopentanone, derived from alicyclic compounds by substituting —C(═O)— for a ring constituent —CH2— thereof.
Hereafter, the reducing activity was measured by allowing the reaction to proceed at 30° C. for 3 minutes in 3.0 ml of a reaction mixture containing 1 mM 5-acetylfuro[2,3-c]pyridine (substrate), 0.25 mM NADH, 0.3% (vol/vol) dimethyl sulfoxide and 0.05 ml of the enzyme solution in 100 mM phosphate buffer (pH 6.5) and measuring the decrease in absorbance at the wavelength 340 nm. These conditions were employed as standard reaction conditions for reducing activity measurement. The enzyme activity oxidizing 1 μmole of NADH to NAD^+ in one minute under these reaction conditions was defined as 1 unit.
The reducing activity of FPDH was examined against various compounds. Activity measurements were conducted under the standard reaction conditions for reducing activity measurement using various carbonyl compounds shown in Table 8 and Table 9 as substrates in lieu of 5-acetylfuro[2,3-c]pyridine. In Table 8 and Table 9, the results are shown in terms of relative activity with the reducing activity when 5-acetylfuro[2,3-c]pyridine was used as the substrate being taken as 100%. As a result, FPDH had reducing activity against ketones and aldehydes but the reducing activity thereof was very low against carbocyclic ketones and the ketone in position α to a carboxyl group.

[3] = inhibitor 1.0 mM, activity without inhibitor = 100%, 1 mM 5-acetylfuro[2,3-c]pyridine, 0.25 mM NADH, pH 6.5, 30° C.

Row | SMILES | Relative activity (reducing activity, Table 8) (FPDH [2]) | Relative activity (reducing activity, Table 9) (FPDH [2]) | further results
1 | O[C@H](CS)[C@H](O)CS (racemic) [Dithiothreitol] | – | – | Relative activity (FPDH [1]; [3]): 93%
2 | c1cnc2c(c1)ccc1cccnc12 [1,10-Phenanthroline] | – | – | Relative activity (FPDH [1]; [3]): 98%
3 | CC(=O)C1CCCCC1=O (stereo not shown) [1-Acetylcyclohexanone] | 68% | – | –
4 | CC(=O)C1CCCC1=O (stereo not shown) [1-Acetylcyclopentanone] | 86% | – | –
5 | CC(=O)c1cc2ccoc2c(Cl)n1 [1-Chloro-5-acetylfuro[2,3-c]pyridine] | 66% | – | –
6 | O=C1CCCc2ccccc21 [1-Tetralone] | – | 2% | –
7 | O=C(CCl)c1cccc(Cl)c1 [2,3′-Dichloroacetophenone] | 19% | – | –
8 | CC(=O)c1ccco1 [2-Acetylfuran] | 43% | – | –
9 | CC(=O)c1ccccn1 [2-Acetylpyridine] | 111% | – | –
10 | CC(=O)c1ccc[nH]1 [2-Acetylpyrrole] | 100% | – | –
11 | CC(=O)c1nccs1 [2-Acetylthiazole] | 86% | – | –
12 | CC(=O)c1cccs1 [2-Acetylthiophene] | 77% | – | –
13 | CCC(C)=O [2-Butanone] | 94% | – | –
14 | CCCCC(C)=O [2-Hexanone] | 38% | – | –
15 | O=C(CO)c1ccccc1 [2-Hydroxyacetophenone] | 54% | – | –
16 | CCCC(=O)C(=O)O [2-Keto-n-valeric acid] | – | 7% | –
17 | CCC(=O)C(=O)O [2-Ketobutyric acid] | – | 5% | –
18 | OCCS [2-Mercaptoethanol] | – | – | Relative activity (FPDH [1]; [3]): 94%
19 | CCCCCCC(C)=O [2-Octanone] | 38% | – | –
20 | CCCC(C)=O [2-Pentanone] | 67% | – | –
21 | O=C1CCc2ccccc2C1 [2-Tetralone] | – | 0% | –
22 | CC(=O)c1cccnc1 [3-Acetylpyridine] | 107% | – | –
23 | CC(=O)c1ccncc1 [4-Acetylpyridine] | 130% | – | –

Row | SMILES | Relative activity (reducing activity, Table 8) (FPDH [2]) | Relative activity (reducing activity, Table 9) (FPDH [2]) | further results
24 | CC(=O)c1cc2ccoc2cn1 [5-Acetylfuro[2,3-c]pyridine] | 100% | – | –
25 | CC=O [Acetaldehyde] | – | 36% | –
26 | CC(=O)C(C)O (stereo not shown) [Acetoin] | 43% | – | –
27 | CC(C)=O [Acetone] | 40% | – | –
28 | CC(=O)c1ccccc1 [Acetophenone] | 88% | – | –
29 | CC(=O)CC(C)=O [Acetylacetone] | 123% | – | –
30 | CC(=O)c1cnccn1 [Acetylpyrazine] | 133% | – | –
31 | O=Cc1ccccc1 [Benzaldehyde] | – | 94% | –
32 | CC(=O)CCc1ccccc1 [Benzylacetone] | 96% | – | –
33 | CC12CCC(C(=O)C1=O)C2(C)C (stereo not shown) [Camphorquinone] | – | 3% | –
34 | [Cl-].[Cl-].[Co+2] [CoCl2] | – | – | Relative activity (FPDH [1]; pH 6.5): 85%
35 | O=S(=O)([O-])[O-].[Cu+2] [CuSO4] | – | – | Relative activity (FPDH [1]; [3]): 103%
36 | O=C1CCCCCC1 [Cycloheptanone] | – | 4% | –
37 | O=C1CCCCC1 [Cyclohexanone] | – | 4% | –
38 | O=C1CCCC1 [Cyclopentanone] | – | 3% | –
39 | CC(=O)C(C)=O [Diacetyl] | 107% | – | –
40 | CCC(=O)CC [Diethyl ketone] | 22% | – | –
41 | CCOC(=O)C(Cl)C(C)=O (stereo not shown) [Ethyl 2-chloroacetoacetate] | – | 88% | –
42 | CCOC(=O)CC(C)=O [Ethyl acetoacetate] | – | 141% | –
43 | CCOC(=O)C(C)=O [Ethyl pyruvate] | 133% | – | –
44 | COC(=O)CC(C)=O [Methyl acetoacetate] | – | 128% | –
45 | CC(=O)CC(C)C [Methyl isobutyl ketone] | 14% | – | –
46 | CC(=O)C(C)C [Methyl isopropyl ketone] | 43% | – | –

Row | SMILES | Relative activity (reducing activity, Table 8) (FPDH [2]) | Relative activity (reducing activity, Table 9) (FPDH [2]) | further results
47 | COC(=O)C(C)=O [Methyl pyruvate] | 132% | – | –
48 | O=C(O)CC(=O)C(=O)O [Oxalacetic acid] | – | 4% | –
49 | CCC=O [Propionaldehyde] | – | 70% | –
50 | O=Cc1ccccn1 [Pyridine-2-aldehyde] | – | 54% | –
51 | O=Cc1cccnc1 [Pyridine-3-aldehyde] | – | 47% | –
52 | O=Cc1ccncc1 [Pyridine-4-aldehyde] | – | 64% | –
53 | CC(=O)C(=O)O [Pyruvic acid] | – | 3% | –
54 | CC(=O)c1cccc(Cl)c1 [m-Chloroacetophenone] | 120% | – | –
55 | O=Cc1cccc(Cl)c1 [m-Chlorobenzaldehyde] | – | 111% | –
56 | CC(=O)c1cccc([N+](=O)[O-])c1 [m-Nitroacetophenone] | 136% | – | –
57 | O=Cc1cccc([N+](=O)[O-])c1 [m-Nitrobenzaldehyde] | – | 103% | –
58 | CCCC=O [n-Butyr aldehyde] | – | 123% | –
59 | CCCCCC=O [n-Hexyl aldehyde] | – | 71% | –
60 | CC(=O)c1ccccc1Cl [o-Chloroacetophenone] | 9% | – | –
61 | O=Cc1ccccc1Cl [o-Chlorobenzaldehyde] | – | 0% | –
62 | O=Cc1ccccc1[N+](=O)[O-] [o-Nitrobenzaldehyde] | – | 9% | –
63 | CC(=O)c1ccc(Cl)cc1 [p-Chloroacetophenone] | 88% | – | –
64 | O=Cc1ccc(Cl)cc1 [p-Chlorobenzaldehyde] | – | 104% | –
65 | CC(=O)c1ccc(F)cc1 [p-Fluoroacetophenone] | 88% | – | –
66 | CC(=O)c1ccc([N+](=O)[O-])cc1 [p-Nitroacetophenone] | 116% | – | –
67 | O=Cc1ccc([N+](=O)[O-])cc1 [p-Nitrobenzaldehyde] | – | 162% | –
